Experimental data reported in publication PMC12136037, “Type II kinase inhibitors that target Parkinson’s disease–associated LRRK2” (Science Advances, 2025).
“And” between values parts separate entries of the source, which are not always exact repeats. Identical values can stand only once.

Key:
[1] = target: T1, LRRK2^KW (Homo sapiens, UniProt Q5S007); test: DSF thermal stabilization of LRRK2^KW; type: binding; settings: DSF, LRRK2^KW, 10 μM inhibitor
T1 construct: LRRK2 R1847 to E2527; His6-Z-tag (TEV cleavable) (N, cleaved yes); host or cells: Sf9 insect cells (baculovirus)
T1 sequence (Q5S007 1847-2527): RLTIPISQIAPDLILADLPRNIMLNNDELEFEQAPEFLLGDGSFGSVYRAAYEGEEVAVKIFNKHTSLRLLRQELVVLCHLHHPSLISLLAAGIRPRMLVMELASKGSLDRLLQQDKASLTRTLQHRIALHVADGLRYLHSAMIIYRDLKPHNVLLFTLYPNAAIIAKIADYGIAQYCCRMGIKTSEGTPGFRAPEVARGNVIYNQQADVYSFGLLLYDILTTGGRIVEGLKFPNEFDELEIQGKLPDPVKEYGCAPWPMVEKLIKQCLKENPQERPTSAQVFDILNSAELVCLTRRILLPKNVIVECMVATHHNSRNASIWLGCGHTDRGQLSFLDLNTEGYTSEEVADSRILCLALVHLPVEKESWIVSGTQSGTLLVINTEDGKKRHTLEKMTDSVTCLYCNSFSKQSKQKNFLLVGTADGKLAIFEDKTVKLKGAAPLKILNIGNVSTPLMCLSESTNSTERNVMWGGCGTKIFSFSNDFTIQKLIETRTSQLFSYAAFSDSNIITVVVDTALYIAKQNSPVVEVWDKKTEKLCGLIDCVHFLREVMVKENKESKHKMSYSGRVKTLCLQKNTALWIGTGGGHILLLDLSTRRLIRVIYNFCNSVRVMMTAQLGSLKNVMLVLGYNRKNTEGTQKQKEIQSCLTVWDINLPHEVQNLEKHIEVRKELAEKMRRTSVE
Method in brief: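 DSF on 4 μM LRRK2^KW in 20 mM Hepes pH 7.4, 150 mM NaCl, 0.5 mM TCEP, 0.5% glycerol, 20 μM GDP, 2.5 mM MgCl2 with SYPRO Orange; inhibitor at 10 μM. Tm was taken as the minimum of the first derivative of fluorescence versus temperature, relative to control.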

[2] = target: T2, LRRK2^RCKW (Homo sapiens, UniProt Q5S007); test: Biochemical LRRK2 activity assay (PhosphoSense, AssayQuant SOX peptide AQT0615); settings: for IC50: LRRK2^RCKW kinase activity, in vitro; for normalized response (LRRK2 activity): normalized to 0% (no kinase) and 100% (no inhibitor) control, two singlicate columns per compound
T2 construct: LRRK2 R1327 to E2527; His6-Z-tag (TEV cleavable) (N, cleaved yes); host or cells: Sf9 insect cells (baculovirus)
T2 sequence (Q5S007 1327-2527): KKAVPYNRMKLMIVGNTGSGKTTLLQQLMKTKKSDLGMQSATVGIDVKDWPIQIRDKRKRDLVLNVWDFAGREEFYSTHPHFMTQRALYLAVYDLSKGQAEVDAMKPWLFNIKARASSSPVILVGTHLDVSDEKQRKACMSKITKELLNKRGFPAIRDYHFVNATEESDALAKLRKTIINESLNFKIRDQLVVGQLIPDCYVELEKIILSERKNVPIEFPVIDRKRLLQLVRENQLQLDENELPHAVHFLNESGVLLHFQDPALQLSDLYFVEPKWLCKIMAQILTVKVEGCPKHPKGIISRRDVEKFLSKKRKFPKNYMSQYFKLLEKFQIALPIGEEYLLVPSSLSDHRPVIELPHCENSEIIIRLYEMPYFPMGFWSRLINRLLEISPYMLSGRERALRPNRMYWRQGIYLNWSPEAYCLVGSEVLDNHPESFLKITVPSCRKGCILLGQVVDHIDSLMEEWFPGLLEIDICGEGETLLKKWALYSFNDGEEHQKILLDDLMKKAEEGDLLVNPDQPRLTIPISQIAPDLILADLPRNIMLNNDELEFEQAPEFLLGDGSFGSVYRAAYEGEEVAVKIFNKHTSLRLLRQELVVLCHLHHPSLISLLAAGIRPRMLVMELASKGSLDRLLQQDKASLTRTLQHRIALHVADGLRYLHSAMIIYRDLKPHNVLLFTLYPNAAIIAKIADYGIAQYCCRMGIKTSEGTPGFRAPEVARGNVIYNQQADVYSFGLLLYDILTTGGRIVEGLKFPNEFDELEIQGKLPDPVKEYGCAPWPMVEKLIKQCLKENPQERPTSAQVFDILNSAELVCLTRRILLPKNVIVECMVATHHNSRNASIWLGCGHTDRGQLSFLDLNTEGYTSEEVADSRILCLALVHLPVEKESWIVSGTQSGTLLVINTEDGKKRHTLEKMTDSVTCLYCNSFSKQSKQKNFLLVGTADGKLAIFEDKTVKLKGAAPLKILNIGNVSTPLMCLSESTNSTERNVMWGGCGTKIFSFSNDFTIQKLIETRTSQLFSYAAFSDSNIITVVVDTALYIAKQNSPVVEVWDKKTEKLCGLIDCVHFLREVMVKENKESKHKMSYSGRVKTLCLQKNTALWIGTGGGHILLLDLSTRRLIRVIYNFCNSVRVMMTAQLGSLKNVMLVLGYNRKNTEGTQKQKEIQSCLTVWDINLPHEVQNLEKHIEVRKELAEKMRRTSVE
Method in brief: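 Controls lacked protein and compound (0%) or compound only (100%). IC50 derived by nonlinear regression of normalized response versus log[inhibitor].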

| SMILES | ∆Tm (K) [1] [K] | IC50 [2] [nM] | normalized response (LRRK2 activity) ([2]; log[inhibitor(mol)] -5.12494) | normalized response (LRRK2 activity) ([2]; log[inhibitor(mol)] -5.60206) | normalized response (LRRK2 activity) ([2]; log[inhibitor(mol)] -6.30103) | normalized response (LRRK2 activity) ([2]; log[inhibitor(mol)] -6.90309) | normalized response (LRRK2 activity) ([2]; log[inhibitor(mol)] -7.30103) | normalized response (LRRK2 activity) ([2]; log[inhibitor(mol)] -7.60206) | normalized response (LRRK2 activity) ([2]; log[inhibitor(mol)] -8.09691) | normalized response (LRRK2 activity) ([2]; log[inhibitor(mol)] -8.61979) | normalized response (LRRK2 activity) ([2]; log[inhibitor(mol)] -9.39794) | normalized response (LRRK2 activity) ([2]; log[inhibitor(mol)] -4.82391) | normalized response (LRRK2 activity) ([2]; log[inhibitor(mol)] -9.09691) |
| --- | --- | --- | --- | --- | --- | --- | --- | --- | --- | --- | --- | --- | --- |
| Cc1cc(F)ccc1NC(=O)C1(C(=O)Nc2cccc(-c3c[nH]c4ncnc(N5CCOCC5)c34)c2)CC1 [Compound 24] | 8.5 | 1190 ± 231 | 6.394% and 5.578% | 30.1593% and 37.3588% | 66.9115% and 76.4371% | 91.3884% and 99.1893% | 98.0109% and 87.3375% | 102.16% and 100.865% | 98.4037% and 99.8706% | 99.6435% and 101.436% | 101.258% and 60.2522% |  |  |
| O=C(Nc1cccc(-c2c[nH]c3ncnc(N4CCOCC4)c23)c1)C1(C(=O)Nc2cc(Br)c(F)cc2F)CC1 [Compound 25] | 9.0 | 818 ± 56 | 6.886% and 2.089% | 16.9372% and 25.3493% | 61.5503% and 64.2768% | 87.889% and 62.9679% | 95.1314% and 96.4468% | 95.9663% and 100.454% | 95.3684% and 96.0989% | 98.0471% and 98.2841% | 99.7517% and 70.9452% | 4.179% and 4.042% | 97.884% and 98.6428% |
| O=C(Nc1cccc(-c2c[nH]c3ncnc(N4CCOCC4)c23)c1)C1(C(=O)Nc2ccc(F)c(Br)c2F)CC1 [Compound 26] | 10.7 | 134 ± 5 | 9.123% and 11.3015% | 44.4326% and 42.5431% | 13.6454% and 21.2987% | 53.1512% and 54.1949% | 78.8268% and 70.6625% | 83.0818% and 80.8923% | 91.3569% and 90.9395% | 93.5464% and 85.6887% | 97.1774% and 94.1421% | 1.939% and 8.5359% | 97.2382% and 103.098% |
| O=C(Nc1cc(F)cc(Br)c1)C1(C(=O)Nc2cccc(-c3c[nH]c4ncnc(N5CCOCC5)c34)c2)CC1 [Compound 27] | 10.2 | 1960 ± 652 | 15.329% and 15.4402% | 51.4182% and 54.957% | 74.2368% and 85.6074% | 93.8115% and 94.6865% | 93.6955% and 101.281% | 91.0994% and 95.9483% | 92.7092% and 88.0778% | 94.7784% and 93.0186% | 94.4883% and 98.7958% | 9.9531% and 0.1682% | 131.133% and 93.2265% |
| CC(C)(C)c1cc(NC(=O)Nc2cccc(-c3c[nH]c4ncnc(N5CCOCC5)c34)c2)n(-c2ccc3ncccc3c2)n1 [Compound 28] | 20.0 | 59.7 ± 2.9 | -4.603% and -7.6443% | -5.899% and -7.93% | -0.5957% and -1.998% | 20.6807% and 19.3416% | 54.9087% | 83.9541% and 76.0062% | 102.755% and 100.691% | 109.195% and 109.069% | 72.3369% and 118.777% | 3.992% and -4.217% | 110.935% and 112.883% |
| Cc1ccc(-n2nc(C(C)(C)C)cc2NC(=O)Nc2cccc(-c3c[nH]c4ncnc(N5CCOCC5)c34)c2)cc1 [Compound 29] | 21.0 | 20.2 ± 0.01 | -15.0137% and -16.6919% | -14.1253% and -13.1052% | -11.8493% and -10.5551% | -5.6961% and -4.1002% | 9.533% and 17.3374% | 45.8935% and 45.9868% | 84.3047% and 80.6906% | 106.121% and 110.711% | 104.536% and 110.261% |  | 109.51% and 103.466% |
